Test system: C57BLKS db/db mice
Assay: 10 days study: fasting blood glucose and oral glucose tolerance in db/db mice
Assay type: in vivo, mouse
Conditions: for Blood glucose (15 min after glucose application) / Blood glucose (before glucose application): fasted 24 h; for Blood glucose (15 min after glucose application): 15 min after oral 1 g/kg glucose; for Blood glucose (before glucose application): 1 h after dose
Experimental: Female C57BLKS db/db mice obtained from M&B A/S (8680 Ry, Denmark) were used in the studies at 10 to 11 weeks of age. Mice were housed 10 per cage and allowed free access to water and standard laboratory diet for rodents (chow 3433, Provimi Kliba SA, 4303 Kaiseraugst, Switzerland).
Mice were allowed to acclimate to the local animal facilities for 1 week and retro-orbital blood samples were obtained 3 to 7 days prior to the start of the study.
Mice were treated with vehicle, Roflumilast or Roflumilast-N-Oxide, respectively once daily in the morning. Roflumilast or Roflumilast-N-Oxide was suspended in 4% methocel and applied via oral gavage using oral feeding & dosing needles (outer diameter: 1.5 mm, TSE GmbH, 61350 Bad Homburg, Germany). A volume of 10 ml/kg body weight was administered for each dose.
10 days studies: Mice were treated with vehicle, Roflumilast or Roflumilast-N-Oxide once daily in the morning. On day 9, mice were fasted for 24 hours by removing standard diet for laboratory animals 1 hour after drug application. On day 10, one hour after administration of vehicle, Roflumilast or Roflumilast-N-Oxide glucose tolerance was assessed by oral application of 1 g/kg/10 ml glucose. Blood was sampled before and 15 minutes after glucose application and levels of glucose (accu-chek, Roche Diagnostics GmbH, 68298 Mannheim, Germany) were measured.

[1] = Roflumilast 1 mg/kg oral once daily 10 days
[2] = Roflumilast 10 mg/kg oral once daily 10 days

## O=C(Nc1c(Cl)cncc1Cl)c1ccc(OC(F)F)c(OCC2CC2)c1 [Roflumilast, 3-cyclopropylmethoxy-4-difluoromethoxy-N-(3,5-dichloropyrid-4-yl)benzamide]
[1]
  Blood glucose (15 min after glucose application): 507 mg/dL
  Blood glucose (before glucose application): 347 mg/dL
[2]
  Blood glucose (15 min after glucose application): 412 mg/dL
  Blood glucose (before glucose application): 191 mg/dL
db/db mice
  Effect on fasting blood glucose levels (summary in words): reduce
  Effect on postprandial blood glucose levels (summary in words): reduce
